Reference: patent US7582646B2, “Pyrimidine derivatives for treatment of hyperproliferative disorders” (Bayer Pharmaceuticals Corporation, priority 2003, dated 2009)
Where a name gives a salt, the structure may show the parent alone.

What follows are compounds tested on HCT116 cells (assay: not given). Conditions: not given.

IC50	Structure (SMILES)
500 to 2000 nM	N#CCc1ccc(-c2cc(Nc3cccc(Oc4ccnc(C(N)=O)c4)c3)nc(N)n2)cc1 [Example 294, 4-[3-({2-amino-6-[4-(cyanomethyl)phenyl]pyrimidin-4-yl}amino)phenoxy] pyridine-2-carboxamide]

What follows are compounds tested on HCT116 cells (assay: HCT116 cytotoxic activity assay (Alamar Blue, 72 h)). Conditions: Homo sapiens, HCT-116, read-out: IC50 in the HCT116 cytotoxic activity assay.
Method: Human tumor cells, e.g., HCT116 cells, are seeded in a 96-well plate at 3.0×10^3 cells/well and grown in 100 μl of RPMI complete media (Invitrogen Corporation, Grand Island, N.Y.) containing 10% fetal bovine serum (Hyclone, Logan, Utah) and 10 mM HEPES and at 37° C. for 16 h in an incubator with 5% CO2. To each well, 50 μl of additional growth media containing 20 μM to 60 nM concentrations of compound with 0.2% DMSO is added. Cells are grown for another 72 h at 37° C. 20 μl of Alamar Blue (Trek Diagnostic Systems, Inc., Cleveland, Ohio) reagent is added to each well and incubated for 4 h at 37° C. Plates are read in a SpectraMax Gemini (Molecular Devices, CA) with 544 nm excitation and 590 nm emission wavelength. IC50 values are determined by linear regression analysis of log drug concentration versus percent inhibition.

Structure (SMILES)	IC50
NCc1cc(Oc2ccc(Nc3cc(-c4ccccc4)nc(N)n3)cc2)ccn1 [Example 39, N^4-(4-{[2-(aminomethyl)pyridin-4-yl]oxy}phenyl)-6-phenylpyrimidine-2,4-diamine]	≤ 500 nM
COC[C@@H]1CCCN1C(=O)c1cc(Oc2ccc(Nc3cc(-c4ccccc4)nc(N)n3)cc2)ccn1 [Example 81, N4*-{4-[(2-{[(2S)-2-(methoxymethylpyrrolidin-1-yl]carbonyl}pyridin-4-yl)oxy]phenyl}-6-phenylpyrimidine-2,4-diamine trifluoroacetate]	> 2000 nM
Nc1nc(Nc2ccc(Oc3ccnc(C(=O)N4CC[C@@H](O)C4)c3)cc2)cc(-c2ccccc2)n1 [Example 82, (3R)-1-[(4-{4-[(2-amino-6-phenylpyrimidin-4-yl)amino]phenoxy}pyridin-2-yl)carbonyl] pyrrolidin-3-ol trifluoroacetate (salt)]	500 to 2000 nM
Cn1cnc(S(=O)(=O)NCc2cc(Oc3ccc(Nc4cc(-c5ccccc5)nc(N)n4)cc3)ccn2)c1 [Example 93, N-[(4-{4-[(2-amino-6-phenylpyrimidin-4-yl)amino]phenoxy}pyridin-2-yl)methyl]-1-methyl-1H-imidazole-4-sulfonamide trifluoroacetate]	> 2000 nM
CCS(=O)(=O)NCc1cc(Oc2ccc(Nc3cc(-c4ccccc4)nc(N)n3)cc2)ccn1 [Example 94, N-[(4-{4-[(2-amino-6-phenylpyrimidin-4-yl)amino]phenoxy}pyridin-2-yl)methyl]ethanesulfonamide trifluoroacetate]	≤ 500 nM
CC(C)S(=O)(=O)NCc1cc(Oc2ccc(Nc3cc(-c4ccccc4)nc(N)n3)cc2)ccn1 [Example 95, N-[(4-{4-[(2-amino-6-phenylpyrimidin-4-yl)amino]phenoxy}pyridin-2-yl)methyl]propane-2-sulfonamide trifluoroacetate]	≤ 500 nM
Nc1nc(Nc2ccc(Oc3ccnc(CNS(=O)(=O)c4ccccc4)c3)cc2)cc(-c2ccccc2)n1 [Example 96, N-[(4-{4-[(2-amino-6-phenylpyrimidin-4-yl)amino]phenoxy}pyridin-2-yl)methyl]benzenesulfonamide trifluoroacetate]	≤ 500 nM
COc1ccc(S(=O)(=O)NCc2cc(Oc3ccc(Nc4cc(-c5ccccc5)nc(N)n4)cc3)ccn2)cc1 [Example 97, N-[(4-{4-[(2-amino-6-phenylpyrimidin-4-yl)amino]phenoxy}pyridin-2-yl)methyl]-4-methoxybenzenesulfonamide trifluoroacetate]	≤ 500 nM
Nc1nc(Nc2ccc(Oc3ccnc(CNS(=O)(=O)c4ccc(F)cc4)c3)cc2)cc(-c2ccccc2)n1 [Example 98, N-[(4-{4-[(2-amino-6-phenylpyrimidin-4-yl)amino]phenoxy}pyridin-2-yl)methyl]-4-fluorobenzenesulfonamide trifluoroacetate]	≤ 500 nM
NC(=O)NCc1cc(Oc2ccc(Nc3cc(-c4ccccc4)nc(N)n3)cc2)ccn1 [Example 101, N-[(4-{4-[(2-amino-6-phenylpyrimidin-4-yl)amino]phenoxy}pyridin-2-yl)methyl]urea trifluoroacetate]	500 to 2000 nM
Nc1nc(Nc2ccc(Oc3ccnc(NCc4ccccc4)c3)cc2)cc(-c2ccccc2)n1 [Example 132, N4*-(4-{[2-(benzylamino)pyridin-4-yl]oxy}phenyl)-6-phenyl-pyrimidine-2,4-diamine trifluoroacetate]	500 to 2000 nM
NCC(=O)Nc1ccc(-c2cc(Nc3ccc(Oc4ccnc(C(F)(F)F)c4)cc3)nc(N)n2)cc1 [Example 151, N-(4-{2-amino-6-[(4-{[2-(trifluoromethyl)pyridin-4-yl]oxy}phe-nyl)amino]pyrimidin-4-yl}phenyl)glycinamide trifluoroacetate]	≤ 500 nM
NCCCC(=O)Nc1ccc(-c2cc(Nc3ccc(Oc4ccnc(C(F)(F)F)c4)cc3)nc(N)n2)cc1 [Example 152, 4-amino-N-(4-{2-amino-6-[(4-{[2-(trifluoromethyl)pyridin-4-yl]oxy}phe-nyl)amino]pyrimidin-4-yl}phenyl)butanamide trifluoroacetate]	500 to 2000 nM
COc1cc(-c2cc(Nc3ccc(Oc4ccnc(C#N)c4)cc3)nc(N)n2)ccc1N [Example 179, 4-(4-{[2-amino-6-(4-amino-3-methoxyphenyl)pyrimidin-4-yl]a-mino}phenoxy)pyridine-2-carbonitrile trifluoroacetate]	≤ 500 nM
